For assay [1], the system named is CHO cells with stably overexpressed rat muscarinic receptor subtype 1 (M1 CHO). As to the kind of experiment: optical LID mass redistribution response of CHO cells with stably overexpressed rat muscarinic receptor subtype 1 after compound addition. The settings on record: compound 10 μM, compared with CHO cells, FIGS. 14, 15, 18. It counts as cell-based, Chinese Hamster. The procedure: FIG. 14 a time-dependent LID response of engineered Chinese Hamster Ovary (CHO) cells with over-expressed rat muscarnic receptor subtype 1 (thus this cell line is termed as M1 CHO) before and after compound addition. The compound concentration used is 10 μM for all compounds.

A further assay concerns CHO cells. Briefly: optical LID (waveguide grating biosensor) mass redistribution response of adherent CHO cells after compound addition. It counts as cell-based, Chinese Hamster. The conditions noted are these: for ligand-induced mass redistribution signal (total change in response): CHO cells, compound 10 μM, FIGS. 13, 15, 18. An excerpt: Referring to FIG. 3, there is shown a flowchart illustrating the basic steps of a method 300 for monitoring in real time the mass redistribution due to an agonist-induced GPCR activation within living cells 108 using an optical LID biosensor 104 in accordance with the present invention. The method 300 includes the following steps: (a) provide an optical LID biosensor 104 (step 302); (b) place a certain number of living cells 108 in a medium which covers the optical LID biosensor 104 such that the living cells 108 attach onto the surface 110 of the optical LID biosensor 104 (step 304); (c) optionally apply a buffer solution at least once into the cell medium (step 306); (d) apply a solution containing a compound (agonist) into the cell medium (step 308); and (e) interrogate the optical LID biosensor 104 and monitor the time dependent optical response 201 of the living cells 108 cultured on the optical LID biosensor 104 (step 310).
It is known that CHO cells 108 endogenously express beta adrenergic receptors, alpha2-adrenergic receptors, P2Y receptors, as well as beta-arrestin and GRKs. It is also known that muscarinic receptors are endogenously expressed at very low level in the CHO cells 108. In this experiment, approximately ˜5×10^4 CHO cells 108 were placed within each well of a microplate that contained an array of optical LID biosensors 104. The CHO cells 108 were then cultured in 150 μl serum medium for 24 hours to ensure that the CHO cells 108 became adherent to the substrate surface 110.
Since muscarinic receptors are endogenously expressed at very low level in CHO cells 108; oxotremorine M, agonist for muscarinic receptors, served as a control. Each of these agonists was directly applied to a different one of the wells which contained the serum medium. The optical responses were then collected by the optical LID system 100.

SMILES strings stand for the structures.

In the case of `CCNC(=O)[C@H]1O[C@@H](n2cnc3c(N)ncnc32)[C@H](O)[C@@H]1O` [NECA], the “ligand-induced mass redistribution signal (total change in response)” value (in assay [1]; with CHO cells) was “results in mass redistribution signals” in each case. Turning to `Clc1cccc(Cl)c1N=C1NCCN1` [clonidine], the “ligand-induced mass redistribution signal (total change in response)” value with CHO cells was “induced mass redistribution signals”. As to `C[N+](C)(C)CC#CCN1CCCC1=O` [oxotremorine M], the “ligand-induced mass redistribution signal (total change in response)” value in assay [1] was “significantly larger responses in M1-CHO cells”. The “agonist-induced time-dependent optical LID response” value in the assay with CHO cells (CHO cells in serum medium, ATP 100 μM, epinephrine 100 μM, clonidine 10 μM, oxotremorine M 10 μM, FIG. 10) is “almost no cell response”. Regarding `Cc1scc2c1N(C(=O)CN1CCN(C)CC1)c1ccccc1NC2=O` [telenzepine], the “ligand-induced mass redistribution signal (total change in response)” value in assay [1] was “not its antagonist (telenzepine) results in significantly larger responses”.

The record behind these values is US8148092B2, “System and method for performing G protein coupled receptor (GPCR) cell assays using waveguide-grating sensors” (Corning Incorporated, priority 2005, dated 2012).
